pEC50: −log10 of the molar value. ≈ marks a conversion by molar mass, not a printed value.
What was measured:
[1] = Protein binding in mouse plasma at 1 uM incubated for 2 hrs by equilibrium dialysis based HPLC-MS/MS analysis; format: ADME, cell-free; details: read-out: PPB (converted)
[2] = Solubility of compound at pH 7 by high-throughput analysis; format: physicochemical; details: buffer
[3] = biological target: T1, G protein-coupled receptor 88 (Mus musculus, UniProt Q9EPB7); assay: Agonist activity at GPR88 in wildtype mouse striatal membrane assessed as stimulation of [35S]-GTPgammaS binding incubated for 1 hrs in presence of GDP by liquid scintillation counter
[4] = biological target: G protein-coupled receptor 88 (Homo sapiens, UniProt Q9GZN0); assay: Agonist activity at human GPR88 transfected in HEK293 cells incubated for 10 mins by Gi1 BRET assay
[5] = biological target: T1, G protein-coupled receptor 88; assay: Agonist activity at mouse GPR88 transfected in HEK293 cells incubated for 10 mins by Gi1 BRET assay; format: functional, cell-based
P-gp = assay: Apparent permeability in P-gp overexpressing MDCK-MDR1 cells at 1 uM incubated upto 2 hrs; format: ADME, cell-based, Canis lupus familiaris; details: dog

T1 sequence (Q9EPB7 whole entry): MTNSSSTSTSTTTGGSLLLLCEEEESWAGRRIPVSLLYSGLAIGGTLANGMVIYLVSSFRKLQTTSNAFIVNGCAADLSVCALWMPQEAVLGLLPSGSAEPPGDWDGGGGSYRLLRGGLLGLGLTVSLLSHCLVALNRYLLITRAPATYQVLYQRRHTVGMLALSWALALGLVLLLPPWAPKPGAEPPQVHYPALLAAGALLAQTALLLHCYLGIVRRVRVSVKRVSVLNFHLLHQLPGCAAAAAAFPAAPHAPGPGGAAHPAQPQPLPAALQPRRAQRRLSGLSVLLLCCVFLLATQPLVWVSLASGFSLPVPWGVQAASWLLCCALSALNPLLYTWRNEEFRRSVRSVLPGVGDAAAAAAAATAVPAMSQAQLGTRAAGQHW
G protein-coupled receptor 88 (Homo sapiens, UniProt Q9GZN0), sequence (Q9GZN0 whole entry): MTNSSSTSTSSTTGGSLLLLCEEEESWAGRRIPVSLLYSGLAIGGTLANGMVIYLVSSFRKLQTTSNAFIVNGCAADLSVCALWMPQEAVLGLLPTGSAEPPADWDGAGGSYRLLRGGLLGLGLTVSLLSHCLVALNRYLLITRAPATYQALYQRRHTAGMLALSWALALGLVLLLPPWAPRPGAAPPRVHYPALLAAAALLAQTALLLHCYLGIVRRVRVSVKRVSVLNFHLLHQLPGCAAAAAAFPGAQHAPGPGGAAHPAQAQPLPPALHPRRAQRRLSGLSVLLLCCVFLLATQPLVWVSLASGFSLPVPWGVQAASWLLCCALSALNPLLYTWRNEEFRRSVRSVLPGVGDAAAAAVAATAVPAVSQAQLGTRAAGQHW

CC(C)Oc1ccc(-c2ccc(N(CCOC(F)F)C(=O)[C@@H]3C[C@H]3c3ccncn3)c3ncnn23)cc1
fraction unbound at 2 h, 1 µM [1]: 0.062
solubility [2]: 11 µg/mL (≈ 21.6 µM)

COc1cc(-c2ccc(OC(C)C)cc2)ccc1N(C[C@@H](N)[C@@H](C)OC)C(=O)[C@@H]1C[C@H]1c1ccncn1
pEC50 [3]: 5.21
pEC50 [4]: 6.77
pEC50 [5]: 6.65

COc1cc(-c2ccc(O[C@@H](C)C(F)(F)F)nc2)ccc1N(CCOC(F)F)C(=O)[C@@H]1C[C@H]1c1ccncn1
fraction unbound at 2 h, 1 µM [1]: 0.004

CO[C@H](C)[C@H](N)CN(C(=O)[C@@H]1C[C@H]1c1ccncn1)c1ccc(-c2ccc(OC(C)C)nc2)cc1
fraction unbound at 2 h, 1 µM [1]: 0.052

CC(C)Oc1ccc(-c2ccc(N(CCOC(F)F)C(=O)[C@@H]3C[C@H]3c3ccncn3)c3c2cnn3C)cc1
pEC50 [5]: 7.03

CO[C@H](C)[C@H](N)CN(C(=O)[C@@H]1C[C@H]1c1ccncn1)c1ccc(-c2ccc(OC(C)C)cc2)cc1
pEC50 [4]: < 4.00

Cc1nnc2n1-c1sc(CCC(=O)N3CCOCC3)cc1C(c1ccccc1Cl)=NC2 [APAFANT]
Papp at 2 h, 1 µM (P-gp): 3 ×10⁻⁶ cm/s
